From patent publication US12558369B2, “Compositions and methods of treating Fanconi Anemia” (Dana-Farber Cancer Institute, Inc., priority 2015, dated 2026)
“Also recorded” adds a separate entry of the source.

Experiments:
GM6914 = assay: MMC cell viability (CellTiterGlo) to identify IC90; format: cell-based, human; conditions: GM6914, MMC for 7 days
Method: FIG. 7. Identification of IC90 concentration of MMC on GM6914 and validation of genome wide RNAi screening for MMC resistance. • A) Identification of IC90 concentration of MMC on GM6914. Cells were treated with different doses of MMC for 7 days, and cell viability was measured using CellTiterGlo reagent. […] Cells were transduced with 6 pools of shRNA retrovirus libraries, and selected with puromycin for 48 h. Cells were then treated with MMC for 7 days, and resistant cells were harvested to re-assess their MMC sensitivity by treated with MMC for 3 days. Data shown represented cells transduced by pool #3, 5 and 6. • C) FANCA deficient fibroblast cells (GM6914) were evaluated for MMC sensitivity after shRNA mediated knockdown of SMAD3 and TP53. Survival was measured after 3 days exposure to indicated concentrations of MMC. […] Error bars represent s.e.m. • D) FANCD2 deficient fibroblast cells (PD20) were evaluated for MMC sensitivity after RNAi mediated knockdown of SMAD3 and TP53. Survival was measured after 3 days exposure to indicated concentrations of MMC. […]
(§1) For survival assays, cells were seeded at a density of 1×10^3 cells per well in 96-well plates. After 3-6 days of culture in indicated concentrations of MMC or post exposure of acetaldehyde, viability was assessed using CellTiterGlo reagent (Promega). […] Colonies were counted after crystal violet staining.

[1] = tested on: EUFA316 (FA-G fibroblasts); assay: MMC sensitivity survival assay of FA cells with TGFβ pathway inhibitors; format: cell-based, human
Method: (§2) FIG. 1. TGFβ pathway disruption enhances FA cellular growth. • A) RIGER P value analysis to identify top candidate genes. • B) Clonogenic survival of GM6914 (FA-A fibroblasts) and FANCA-corrected GM6914 cells after shRNA mediated knockdown of SMAD3. Cells were treated with increasing doses of MMC and plated for 10-12 days. The average of two experiments is presented; error bars represent s.e.m.
(§3) For survival assays, cells were seeded at a density of 1×10^3 cells per well in 96-well plates. After 72 hours of culture in indicated concentrations of MMC or post exposure of acetaldehyde, viability was assessed using CellTiterGlo reagent (Promega). In order to assess clonogenicity, cells were seeded at a low density (500-1000 cells per well) in 6-well plates and allowed to form colonies. The cells were then fixed in methanol/20% acetic acid and stained with 1% crystal violet. Colony formation was assessed by solubilizing crystal violet stain with methanol and quantifying UV absorbance for each condition.
as §3, with “3-6 days” for “72 hours”, “Colonies were counted after” for “Colony formation was assessed by solubilizing”, “staining.” for “stain with methanol and quantifying UV absorbance for each condition.”

EUFA316 = assay: Acetaldehyde sensitivity survival assay; format: cell-based, human; conditions: EUFA316 cells
Method: as §2, §3, §1

U2OS cells [2] = assay: NHEJ reporter assay; format: cell-based, human; conditions: template reporter assay
U2OS cells [3] = assay: Immunoblot of DNA-PK phosphorylation; format: cell-based, human
mouse fibroblast cells = assay: Immunoblot of Smad2 phosphorylation; format: cell-based; conditions: immunoblot of lysates
[4] = tested on: Lin− cells from WT and Fancd2−/− mice; assay: Bone marrow Lin− cell growth under TGF-β1; format: cell-based, mouse; conditions: TGF-β1 1 ng/mL; Ab 10 μg/mL or SD208 10 μM; 5 days
Method: (§4) (A) Expression of phospho-Smad2/3 proteins in HSPCs from WT and Fancd2−/− mice as detected by flow cytometric analysis. (B) Quantification of mean fluorescence intensity (MFI) of phospho-Smad2/3 staining by flow cytometric analysis shown in (A) in HSPCs from WT and Fancd2−/− mice. (C) Fancd2−/− HSPCs are more sensitive to TGF-β1 than WT HSPCs. Sorted Lin− cells from WT or Fancd2−/− mice were exposed to TGF-β1. After 5 days in culture, LSK cells were analyzed by flow cytometry and quantified. Data are shown after normalizing to untreated WT group. […] Sorted Lin− cells from WT and Fancd2−/− mice were exposed to TGF-β1 (1 ng/mL) with or without TGF-beta 1,2,3 Ab (10 μg/mL) or SD208 (10 μM), and viable cells were counted after 5 days in culture. Data shown are after normalizing to untreated WT group. Error bars represent mean±s.e.m. (F) Clonogenic assay of WT and Fancd2−/− HSPCs treated with TGF-β1, TGF-beta 1, 2, 3 Ab or SD208. […] Hematopoietic colonies were counted after 7-10 days in culture. […] (I) Representative FACS plots of LSK cells analyzed by flow cytometry for GFP expression after 5 days in vitro culture in stem cell culture medium. […] Luciferase activity was measured. (L) Binding of FANCD2 to SMAD1 promoter (region −2108 to −1950 bp) upon DNA damage as detected by ChIP assay using anti-FANCD2 antibody in corrected GM6914 (+FANCA) but not GM6914 (+Vector) fibroblast cells. […]

Fancd2−/− HSPCs = assay: Clonogenic assay of HSPCs in methylcellulose; format: cell-based, mouse; conditions: TGF-β1 1 ng/mL, Ab 10 μg/mL or SD208 10 μM; colonies after 7-10 days
Method: as §4

[5] = tested on: GM6914 cells (FA-A cells); assay: Traffic light reporter (TLR) assay of HR and NHEJ; format: cell-based, human; conditions: GM6914, 10 μM SD208, 72 hrs
Description: FIG. 17. TGF-β pathway Inhibition Increases HR and Decreases NHEJ activities in FA Cells. • (A, B) TGF-β pathway inhibition affects the choice of HR versus NHEJ pathways in repairing individual DNA breakpoints in FA cells. GM6914 cells (FA-A cells) or FANCA corrected GM6914 cells with shControl or shSMAD3 were used to generate traffic light reporter system, and then were infected with GFP-donor template and I-SceI lentivirus to generate DNA breakpoints. Quantification analysis of HR and NHEJ repair events is shown. (B) The ratio of HR to NHEJ activity based on the data in (A). […] Quantification of HR and NHEJ repair events in GM6914 cells exposed to SD-208 for 72 hrs as detected by traffic light reporter assay described in (A). […] HR assay was measured in U2OS cells with DR-GFP reporter after transduction with lentivirus encoding indicated shRNAs. The representative of three independent experiments is presented. […] (F, G) TGF-β pathway inhibition promotes HR activity in FA cells. Representative images (F) and quantification (G) of RAD51 foci in MMC treated GM6914 (FA-A) cells or FANCA corrected GM6914 cells with shRNA-mediated knockdown of SMAD3. […] One hundred cells were scored for RAD51 foci. […]
the presence of 8 μg/mL polybrene. […] Genome engineering events were analyzed by flow cytometry at 72 hours after transduction. NHEJ is represented by mCherry fluorescence, and HR by GFP fluorescence.

CO[C@@]12[C@H](COC(N)=O)C3=C(C(=O)C(C)=C(N)C3=O)N1C[C@@H]1N[C@@H]12 [MMC, mitomycin C]
IC90 (GM6914): 19 nM

Fc1ccc(Cl)cc1-c1nc(Nc2ccncc2)c2nccnc2n1 [SD208]
FA cells survival in the presence of MMC ([1]; FA cell lines with inhibitor): improved FA cells survival in the presence of MMC | cytotoxicity of corrected FA cells ([1]; corrected FA cells): do not significantly alter cytotoxicity of corrected FA cells | survival in the presence of acetaldehyde (EUFA316): significantly promoted survival | NHEJ activity (U2OS cells [2]): decreased NHEJ | phosphorylation of DNA-PK (U2OS cells [3]): blocks phosphorylation of DNA-PK | phosphorylation of Smad2 (mouse fibroblast cells): reduced phosphorylation of Smad2 | inhibitory effect of TGF-β1 on bone marrow Lin− cell growth [4]: rescues inhibitory effect of TGF-β1 | clonogenic ability of Fancd2−/− HSPCs (Fancd2−/− HSPCs): markedly enhanced the clonogenic ability | HR activity / HR events [5]: increased HR activity; also recorded: increases HR events | NHEJ events [5]: decreases NHEJ events
